Assay: solubility in water of the dried chelate
Assay type: physicochemical
Details: ambient temperature, white powder
Experimental: In the case described, the dried chelate is in the form of a white powder, with a melting point of about 248° C. and a solubility in water of about 20 g/l at ambient temperature.

(CH3SCH2CH2CHOHCO)2Zn [Example 1]
solubility in water: about 20 g/l

Reference: US6461664B1, “Chelated feed additive and method of preparation” (Agristudio S. r. L., priority 1999, dated 2002)
